Experimental data taken from the supplement of paper PMC11451515.

System: P12-Ichikawa
Assay: cell viability relative to DMSO control; higher = less cytotoxic
Conditions: 48 h
In short: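 Viability was expressed as a per-plate percentage of DMSO wells, with cell-free wells as background. Leukemia cells (NOMO1 or SEM at 500 cells/well, P12-Ichikawa at 1000 cells/well) were adapted for at least four passages in each medium and seeded in 1536-well plates (5 μl). Library compounds in DMSO were pin-dosed over an 11-point threefold series from 47 μM to 0.79 nM, and CellTiter-Glo One luminescence was read after 48 h at 37°C.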

[1] = HPLM + 10% dialyzed FBS, 0.000781 µM
[2] = HPLM + 10% dialyzed FBS, 0.00234 µM
[3] = HPLM + 10% dialyzed FBS, 0.00702 µM
[4] = HPLM + 10% dialyzed FBS, 0.0211 µM
[5] = HPLM + 10% dialyzed FBS, 0.0632 µM
[6] = HPLM + 10% dialyzed FBS, 0.19 µM
[7] = HPLM + 10% dialyzed FBS, 0.569 µM
[8] = HPLM + 10% dialyzed FBS, 1.71 µM
[9] = HPLM + 10% dialyzed FBS, 5.12 µM
[10] = HPLM + 10% dialyzed FBS, 15.4 µM
[11] = HPLM + 10% dialyzed FBS, 46.1 µM
[12] = RPMI 5 mM glucose + 10% FBS, 0.000781 µM
[13] = RPMI 5 mM glucose + 10% FBS, 0.00234 µM
[14] = RPMI 5 mM glucose + 10% FBS, 0.00702 µM
[15] = RPMI 5 mM glucose + 10% FBS, 0.0211 µM
[16] = RPMI 5 mM glucose + 10% FBS, 0.0632 µM
[17] = RPMI 5 mM glucose + 10% FBS, 0.19 µM
[18] = RPMI 5 mM glucose + 10% FBS, 0.569 µM
[19] = RPMI 5 mM glucose + 10% FBS, 1.71 µM
[20] = RPMI 5 mM glucose + 10% FBS, 5.12 µM
[21] = RPMI 5 mM glucose + 10% FBS, 15.4 µM
[22] = RPMI 5 mM glucose + 10% FBS, 46.1 µM
[23] = RPMI 5 mM glucose + 10% dialyzed FBS, 0.000781 µM
[24] = RPMI 5 mM glucose + 10% dialyzed FBS, 0.00234 µM
[25] = RPMI 5 mM glucose + 10% dialyzed FBS, 0.00702 µM
[26] = RPMI 5 mM glucose + 10% dialyzed FBS, 0.0211 µM
[27] = RPMI 5 mM glucose + 10% dialyzed FBS, 0.0632 µM
[28] = RPMI 5 mM glucose + 10% dialyzed FBS, 0.19 µM
[29] = RPMI 5 mM glucose + 10% dialyzed FBS, 0.569 µM
[30] = RPMI 5 mM glucose + 10% dialyzed FBS, 1.71 µM
[31] = RPMI 5 mM glucose + 10% dialyzed FBS, 5.12 µM
[32] = RPMI 5 mM glucose + 10% dialyzed FBS, 15.4 µM
[33] = RPMI 5 mM glucose + 10% dialyzed FBS, 46.1 µM

Row | SMILES | cell viability [1] [%] | cell viability [2] [%] | cell viability [3] [%] | cell viability [4] [%] | cell viability [5] [%] | cell viability [6] [%] | cell viability [7] [%] | cell viability [8] [%] | cell viability [9] [%] | cell viability [10] [%] | cell viability [11] [%] | cell viability [12] [%] | cell viability [13] [%] | cell viability [14] [%] | cell viability [15] [%] | cell viability [16] [%] | cell viability [17] [%] | cell viability [18] [%] | cell viability [19] [%] | cell viability [20] [%] | cell viability [21] [%] | cell viability [22] [%] | cell viability [23] [%] | cell viability [24] [%] | cell viability [25] [%] | cell viability [26] [%] | cell viability [27] [%] | cell viability [28] [%] | cell viability [29] [%] | cell viability [30] [%] | cell viability [31] [%] | cell viability [32] [%] | cell viability [33] [%]
1 | Cc1cn(-c2cc(NC(=O)c3ccc(C)c(Nc4nccc(-c5cccnc5)n4)c3)cc(C(F)(F)F)c2)cn1 | 102 | 101 | 108 | 109 | 110 | 107 | 106 | 12 | 13.1 | 9.96 | 10.8 | 112 | 111 | 114 | 117 | 113 | 112 | 110 | 43.6 | 11.4 | 12.1 | 11 | 103 | 113 | 114 | 112 | 115 | 113 | 114 | 23.9 | 24.5 | 26.7 | 22.7
2 | CC1(C)O[C@@H]2C[C@H]3[C@@H]4CCC5=CC(=O)C=C[C@]5(C)[C@H]4[C@@H](O)C[C@]3(C)[C@]2(C(=O)CO)O1 | 100 | 104 | 106 | 91.8 | 93 | 90.2 | 70.7 | 64 | 66 | 65.2 | 62.9 | 90.3 | 100 | 107 | 106 | 82.4 | 76.3 | 59.2 | 53 | 52 | 50.4 | 51.5 | 90.2 | 98.8 | 97.8 | 92.4 | 76.6 | 72.8 | 56.6 | 49.8 | 45.4 | 40.9 | 42.1
3 | COc1cc2ncnc(Nc3cc(Br)c(O)c(Br)c3)c2cc1OC | 98.7 | 103 | 106 | 101 | 112 | 110 | 109 | 107 | 106 | 108 | 96.5 | 92.3 | 104 | 107 | 114 | 109 | 113 | 117 | 118 | 99.7 | 106 | 79.4 | 95.8 | 104 | 108 | 109 | 111 | 114 | 114 | 118 | 105 | 109 | 94.9
4 | C=C(C)[C@H]1Cc2c(ccc3c2O[C@@H]2COc4cc(OC)c(OC)cc4[C@@H]2C3=O)O1 | 101 | 108 | 107 | 111 | 95.9 | 118 | 90.6 | 76.5 | 56.1 | 19.7 | 17.7 | 108 | 113 | 104 | 106 | 88.2 | 99.5 | 73.6 | 60.3 | 44.3 | 17.3 | 10.1 | 98.6 | 106 | 110 | 107 | 102 | 95.7 | 76.6 | 69.3 | 59.9 | 34 | 24.1
